Data on four compounds can be found in PMC9007139 (Journal of medicinal chemistry, 2020).

SMILES strings stand for the structures.

A short description of data set [1]: In vivo pharmacokinetics, rat. Also noted: species or system Male Sprague-Dawley rats. The note with it: male, Sprague-Dawley, plasma, iv, 0.3 mg/kg.
A short description of data set [2]: In vivo pharmacokinetics, dog. Conditions: male, beagle, plasma, iv, 0.3 mg/kg. The arrangement: species or system Male beagle dogs.
A further data set in a line: in vitro. Conditions: rat, microsomes, pH 7.4.
A short description of a further data set: Caco-2 permeability. The format is in vitro ADME.

Regarding `CNC(=O)c1cn(C[C@H](F)CCc2ccc(NC(=O)Cc3cc(OC4CC(F)(F)C4)ccn3)nn2)nn1` [Compound 24], the clearance in data set [1] and in data set [2] was 3 mL/min/kg in each case.
As for `CNC(=O)c1cn(C[C@H](F)CCc2ccc(NC(=O)Cc3cc(-c4cccc(OC(F)(F)F)c4)ccn3)nn2)nn1` [Compound 25], the clearance in data set [1] was 8 mL/min/kg; in data set [2] it was 2.9 mL/min/kg. In “in vitro”, this compound yielded a CLint scaled at 1 uM of 22 mL/min/kg.
`CNC(=O)c1cn(C[C@H](F)CCc2ccc(NC(=O)Cc3cc(C(F)(F)F)cc(C)n3)nn2)nn1` [Compound 26]: the clearance turned out to be 1 mL/min/kg in data set [1] and 0.9 mL/min/kg in data set [2].
On to `CNC(=O)c1cn(C[C@H](F)CCc2ccc(NC(=O)Cc3cc(OC4CC(F)(F)C4)cc(C)n3)nn2)nn1` [Compound 27, (R)-1-(4-(6-(2-(4-(3,3-difluorocyclobutoxy)-6-methylpyridin-2-yl)acetamido)pyridazin-3-yl)-2-fluorobutyl)-N-methyl-1H-1,2,3-triazole-4-carboxamide], for which the clearance in data set [1] turned out to be 0.3 mL/min/kg; in data set [2], 0.6 mL/min/kg. Besides, in “Caco-2 permeability”, the “efflux in Caco-2 assay” value was “mild efflux”.
